Reference: patent US20190119348A1, “PARATHYROID HORMONE RECEPTOR 1 ANTAGONIST AND INVERSE AGONIST POLYPEPTIDES AND METHODS OF THEIR USE” (The General Hospital Corporation, priority 2016, published 2019)
Where a SMILES comes first, the peptide text is derived from it. [ ]: non-standard residue; d: D form.

Biological target: T1, endogenous hPTHR1 (Homo sapiens, UniProt Q03431)
T1 construct: Saos-2, in which is endogenously expressed the hPTHR1; endogenous in cells
T1 sequence (Q03431 27-593): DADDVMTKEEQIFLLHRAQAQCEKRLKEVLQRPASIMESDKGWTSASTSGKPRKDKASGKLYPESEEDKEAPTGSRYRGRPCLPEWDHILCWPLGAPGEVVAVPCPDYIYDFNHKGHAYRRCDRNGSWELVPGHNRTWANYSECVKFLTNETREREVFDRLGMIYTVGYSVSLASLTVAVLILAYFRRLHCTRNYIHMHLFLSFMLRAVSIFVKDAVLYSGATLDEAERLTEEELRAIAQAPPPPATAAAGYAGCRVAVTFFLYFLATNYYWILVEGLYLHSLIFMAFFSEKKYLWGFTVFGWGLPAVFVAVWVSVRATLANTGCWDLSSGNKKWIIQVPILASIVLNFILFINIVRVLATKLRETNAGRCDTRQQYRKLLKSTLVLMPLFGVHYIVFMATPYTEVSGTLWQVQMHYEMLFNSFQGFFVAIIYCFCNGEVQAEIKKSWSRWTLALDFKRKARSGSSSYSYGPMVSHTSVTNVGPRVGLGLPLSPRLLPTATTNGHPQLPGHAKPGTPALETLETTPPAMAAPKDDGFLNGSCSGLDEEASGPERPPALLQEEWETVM
Test: Antagonism of PTH(1-34)- and PTHrP(1-36)-induced cAMP response (GloSensor) in SGS-72 cells
Assay type: cell-based
Conditions: IC50 PTH(1-34) (Table 6, nanomolar value), antagonist pre-treatment 15 minutes, PTH(1-34) 0.3 nM
In short: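 SaOS2-derived SGS-72 cells, which express endogenous hPTHR1 and a stable GloSensor cAMP reporter, were loaded with 0.5 mM luciferin for 15 min at room temperature in CO2-independent medium with 0.1% BSA. Antagonist was tested against PTH(1-34) or PTHrP(1-36), with luminescence taken at the agonist-alone maximum; pIC50 came from four-parameter fits.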

IC50: 2.57 nM
Structure (SMILES): CC[C@H](C)[C@H](N)C(=O)N[C@@H](CCC(N)=O)C(=O)N[C@@H](CC(C)C)C(=O)N[C@@H](CCSC)C(=O)N[C@@H](Cc1c[nH]cn1)C(=O)N[C@@H](CCC(N)=O)C(=O)N[C@@H](CC(C)C)C(=O)N[C@H](Cc1c[nH]c2ccccc12)C(=O)N[C@@H](CCCCN)C(=O)N[C@@H](Cc1c[nH]c2ccccc12)C(=O)N[C@H](C(=O)N[C@@H](CCC(N)=O)C(=O)N[C@@H](CC(=O)O)C(=O)N[C@@H](C)C(=O)N[C@@H](CCCNC(=N)N)C(=O)N[C@@H](CCCNC(=N)N)C(=O)N[C@@H](CCCNC(=N)N)C(=O)N[C@@H](C)C(=O)N[C@@H](Cc1c[nH]c2ccccc12)C(=O)N[C@@H](CC(C)C)C(=O)N[C@@H](Cc1c[nH]cn1)C(=O)N[C@@H](CCCCN)C(=O)N[C@@H](CC(C)C)C(=O)N[C@H](C(=O)N[C@@H](C)C(=O)N[C@@H](CCC(=O)O)C(=O)N[C@H](C(=O)N[C@@H](Cc1c[nH]cn1)C(=O)N[C@H](C(=O)N[C@@H](C)C(=O)N[C@@H](CCC(=O)O)C(=O)N[C@H](C(N)=O)[C@@H](C)CC)[C@@H](C)O)[C@@H](C)CC)[C@@H](C)CC)[C@@H](C)CC [compound 2003, L11, dW12, W23-LA-PTH(5-36)-2003] (H-IQLMHQL[dW]KWIQDARRRAWLHKLIAEIHTAEI-NH2; N-terminus assumed)
